In patent publication US5876948A (priority 1991, dated 1999):
Peptide text beside a SMILES is read from it.

Experiments:
[1] = test system: primary hippocampal neurons; test: Block of β1-40 neuronal toxicity by Substance P and analogs (therapeutic efficacy); type: cell-based, rat
[2] = test system: hippocampal neurons; type: cell-based, rat
[3] = test system: hippocampal neurons; type: cell-based, rat; remark: listed apart in the source
[4] = test system: hippocampal neurons; type: cell-based, rat; remark: listed apart in the source
[5] = test system: hippocampal neurons; type: cell-based, rat; remark: listed apart in the source
[6] = in vivo; cited from earlier work

| Compound | Therapeutic Efficacy (%): ability to block neuronal toxicity of β1-40 [1] [%] | % Trophic Response [2] | neurotrophic activity / early neuronal survival (in words) [2] | % Toxic Response [3] | neurotoxic activity / late neuronal survival (in words) [3] | reversal of early trophic response to β1-40 [4] | reversal of late toxic response to β1-40 [5] | further results |
| --- | --- | --- | --- | --- | --- | --- | --- | --- |
| Sub P, Free Acid | 53 | – | – | – | – | – | – | – |
| CSCC[C@H](NC(=O)[C@H](CC(C)C)NC(=O)CNC(=O)[C@H](Cc1ccccc1)N(C)C(=O)[C@H](Cc1ccccc1)NC(=O)[C@H](CC(=O)O)NC(=O)CCC(=O)O)C(N)=O [[Succinyl-Asp^6, Me-Phe^8]-Sub P (6-11)] (HELM PEPTIDE1{[O=C(O)CCC(=O)[*:2]].D.F.[meF].G.L.M.[am]}$$$$V2.0) | 47 | – | – | – | – | – | – | – |
| CSCC[C@H](NC(=O)[C@H](CC(C)C)NC(=O)CNC(=O)[C@H](Cc1ccc(O)cc1)NC(=O)[C@H](Cc1ccccc1)NC(=O)[C@H](CCCCN)NC(=O)[C@H](CC(N)=O)NC(=O)[C@@H]1CCCN1C(=O)[C@H](CC(=O)O)NC(=O)[C@H](C)NC(=O)[C@@H]1CCC(=O)N1)C(N)=O [Physalaemin] (HELM PEPTIDE1{[Glp].A.D.P.N.K.F.Y.G.L.M.[am]}$$$$V2.0) | – | 0 ± 4% | no effect on early or late neuronal survival | 0 ± 7% | no effect on early or late neuronal survival | almost completely reversed | almost completely reversed | – |
| CSCC[C@H](NC(=O)[C@H](CC(C)C)NC(=O)CNC(=O)[C@@H](NC(=O)[C@H](Cc1ccccc1)NC(=O)[C@H](CCC(N)=O)NC(=O)[C@H](CC(=O)O)NC(=O)[C@H](CO)NC(=O)[C@H](CCCCN)NC(=O)[C@@H]1CCCN1C(=O)[C@@H](NC(=O)[C@@H](N)CC(=O)O)C(C)C)C(C)C)C(N)=O [kassinin] (H-DVPKSDQFVGLM-NH2) | – | – | – | – | – | did not show significant effects | did not show significant effects | – |
| CC[C@H](C)[C@H](NC(=O)[C@H](Cc1ccccc1)NC(=O)[C@H](C)NC(=O)[C@H](CC(=O)O)NC(=O)[C@H](CCCCN)NC(=O)[C@H](CO)NC(=O)[C@@H]1CCCN1C(=O)[C@@H]1CCC(=O)N1)C(=O)NCC(=O)N[C@@H](CC(C)C)C(=O)N[C@@H](CCSC)C(N)=O [Eledoisin] (HELM PEPTIDE1{[Glp].P.S.K.D.A.F.I.G.L.M.[am]}$$$$V2.0) | – | 0 ± 11 | no effect on early or late neuronal survival | 0 ± 6 | no effect on early or late neuronal survival | did not show significant effects | did not show significant effects | – |
| CC(C)C[C@H](NC(=O)[C@H](CC(C)C)NC(=O)[C@@H](Cc1c[nH]c2ccccc12)NC(=O)[C@H](Cc1ccccc1)NC(=O)[C@@H](Cc1c[nH]c2ccccc12)NC(=O)[C@H](CCC(N)=O)NC(=O)[C@H](CCC(N)=O)NC(=O)[C@@H]1CCCN1C(=O)[C@H](CCCCN)NC(=O)[C@@H]1CCCN1C(=O)[C@H](N)CCCNC(=N)N)C(N)=O [spantide, [D-Arg^1, D-Trp^7,9, Leu^11]-substance P] (HELM PEPTIDE1{[dR].P.K.P.Q.Q.[dW].F.[dW].L.L.[am]}$$$$V2.0) | – | 120 ± 8% | significant early neurotrophic and late neurotoxic effects | 118 ± 10% | significant early neurotrophic and late neurotoxic effects | – | – | – |
| Sub P, Methyl Ester | 71 | – | – | – | – | – | – | – |
| CSCC[C@H](NC(=O)[C@H](CC(C)C)NC(=O)CNC(=O)[C@H](Cc1ccccc1)NC(=O)[C@H](Cc1ccccc1)NC(=O)[C@H](CCC(N)=O)NC(=O)[C@H](CCC(N)=O)NC(=O)[C@@H]1CCCN1C(=O)[C@H](CCCCN)NC(=O)[C@@H]1CCCN1C(=O)[C@@H](N)CCCN=C(N)N)C(N)=O [Substance P] | – | – | – | – | – | – | – | crossing of the blood-brain barrier [6]: known to cross the blood-brain barrier |
